Activity calls are given as the source filed them. Some results are limits rather than exact numbers.

Among the data in ChEMBL document CHEMBL1201862, “PubChem BioAssay data set” (2004) are EC50 and AC50 values, retold here.

For data set [1], the system named is Streptococcus sp. 'group A'. Briefly: Streptococcus pyogenes SK(-)GAS viability under kanamycin – luminescence, BacTiterGlo, confirmation, counter-screen for streptokinase expression inhibitor project, dose response (AID 1900). The data set is classed as functional, organism-based.
The next data set has as its target T1, Streptokinase A (Streptococcus pyogenes serotype M1, UniProt P10520).
T1 sequence (P10520 whole entry): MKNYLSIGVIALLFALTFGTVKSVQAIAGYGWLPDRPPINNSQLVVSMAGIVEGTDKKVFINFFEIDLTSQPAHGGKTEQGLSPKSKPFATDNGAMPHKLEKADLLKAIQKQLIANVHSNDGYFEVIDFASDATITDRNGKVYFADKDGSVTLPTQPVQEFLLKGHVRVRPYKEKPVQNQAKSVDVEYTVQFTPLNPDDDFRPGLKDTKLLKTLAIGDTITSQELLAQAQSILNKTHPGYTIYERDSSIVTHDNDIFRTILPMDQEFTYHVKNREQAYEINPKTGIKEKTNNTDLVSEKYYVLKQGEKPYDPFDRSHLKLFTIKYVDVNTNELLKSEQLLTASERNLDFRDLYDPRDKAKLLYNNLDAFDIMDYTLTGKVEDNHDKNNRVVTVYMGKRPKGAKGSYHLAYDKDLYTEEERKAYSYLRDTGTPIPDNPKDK
Briefly: viability-normalized secreted streptokinase activity reduction – plasminogen activation absorbance, OD405, dose response (AID 1914).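 Also: secreted streptokinase activity via plasminogen activation per viability signal from cell pellet.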 The class given is functional, Streptococcus pyogenes M1 GAS.

Another data set concerns Streptococcus. Description: GAS UMAA2166 growth inhibition – luminescence, BacTiterGlo, counter-screen for streptokinase expression inhibitor project, dose response (AID 1915).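 Also: potency for reduction of bacterial viability or growth.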 The class given is functional, organism-based.
The target of another data set is Cytochrome P450 2C19 (Homo sapiens, UniProt P33261). Briefly: Cytochrome panel assay with activity outcomes. Panel member name: p450-cyp2c19 Compounds with AC50 equal or less than 10 uM are considered active. The class given is functional.
Chain of Cytochrome P450 2C19 (P33261 whole entry): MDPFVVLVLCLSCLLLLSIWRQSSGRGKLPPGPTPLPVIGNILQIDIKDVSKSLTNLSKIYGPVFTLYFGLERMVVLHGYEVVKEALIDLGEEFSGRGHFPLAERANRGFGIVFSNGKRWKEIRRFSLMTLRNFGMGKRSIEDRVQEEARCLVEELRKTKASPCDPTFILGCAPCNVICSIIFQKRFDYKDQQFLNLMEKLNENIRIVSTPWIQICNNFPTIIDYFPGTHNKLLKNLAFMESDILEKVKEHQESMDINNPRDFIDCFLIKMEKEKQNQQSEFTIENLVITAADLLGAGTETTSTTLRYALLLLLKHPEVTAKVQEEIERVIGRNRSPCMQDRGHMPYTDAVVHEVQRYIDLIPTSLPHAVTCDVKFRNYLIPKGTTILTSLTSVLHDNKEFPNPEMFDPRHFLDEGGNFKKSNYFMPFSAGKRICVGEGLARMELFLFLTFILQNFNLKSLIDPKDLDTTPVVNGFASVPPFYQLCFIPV
For a further data set, the target named is Cytochrome P450 2C9 (Homo sapiens, UniProt P11712).
Chain of Cytochrome P450 2C9 (P11712 whole entry): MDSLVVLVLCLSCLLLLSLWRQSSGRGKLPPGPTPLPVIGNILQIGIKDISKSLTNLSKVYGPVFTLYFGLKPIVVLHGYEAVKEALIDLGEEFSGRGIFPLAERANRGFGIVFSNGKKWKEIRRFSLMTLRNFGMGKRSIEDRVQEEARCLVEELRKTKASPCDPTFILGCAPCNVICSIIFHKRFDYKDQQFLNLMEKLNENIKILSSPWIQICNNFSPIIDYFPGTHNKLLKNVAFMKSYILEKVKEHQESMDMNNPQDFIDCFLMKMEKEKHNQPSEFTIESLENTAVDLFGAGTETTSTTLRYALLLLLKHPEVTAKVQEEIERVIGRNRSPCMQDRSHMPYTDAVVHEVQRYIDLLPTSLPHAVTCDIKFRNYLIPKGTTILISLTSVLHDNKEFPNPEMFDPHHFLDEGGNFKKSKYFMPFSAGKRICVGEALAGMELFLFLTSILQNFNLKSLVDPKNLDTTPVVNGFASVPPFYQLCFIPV
The nature of data set [2]: Trypanosoma cruzi growth suppression in host cells – NIH3T3 host cells, beta-gal luminescence, confirmation (AID 2044).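 Also: intracellular parasites grown in NIH/3T3 mouse fibroblasts as host cells; luminescent beta-galactosidase reporter signal from transgenic T. cruzi replicating inside host cells; inhibitors lower the luminescence signal.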 The data set is classed as functional, cell-based.
The nature of data set [3]: NIH3T3 cell viability loss – ATP luminescence, mouse fibroblasts, counter-screen, dose response (AID 2010).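 Also: cells exposed to compound for about 90 hours before reading.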 The class given is functional, cell-based.

For `Cn1ncc(Cl)c1C(=O)N1CCC2(CC1)OCCO2`, the EC50 (in data set [1]; on Streptokinase A; with Streptococcus) was > 150 µM (not active) each time. Turning to `C[C@]12CC[C@@H]3C(=CCc4cc(O)ccc43)[C@@H]1CCC2=O`, the AC50 on Cytochrome P450 2C19 (read-out: AC50) is 7.94 µM (inconclusive). For `NS(=O)(=O)c1ccc(/N=N\c2ccc(O)c(C(=O)O)c2)cc1`, the AC50 on Cytochrome P450 2C9 is 1 µM (inconclusive). Consider `CNC(=O)C(=O)NCC1OCCN1S(=O)(=O)c1ccc(OC)c(OC)c1` (stereo not given), for which the EC50 (in data set [1]; at Streptokinase A; with Streptococcus) was > 150 µM (not active) in each case. Regarding `COc1ccc(-c2cc3nc(C)c(CCC(=O)NCc4ccc(F)cc4)c(C)n3n2)c(OC)c1`, the EC50 in data set [2] was 1.33 µM (active); in data set [3], > 60 µM (inconclusive).

Consider `Cc1ccc(NC(=O)C2CCN(S(C)(=O)=O)CC2)cc1`, for which the half-maximal activity concentration (AC50) on Cytochrome P450 2C19 (read-out: AC50) is 20 µM (inconclusive). Regarding `CCOc1nn(-c2ccc(Cl)cc2)c(O)c1/C=N/c1ccc(Cl)cc1`, at Cytochrome P450 2C9, the AC50 was 12.6 µM (inconclusive). Turning to `CCN(CC)CCCSc1nc2ccccc2s1`, the values for the EC50 in data set [2] and in data set [3] were 0.445 µM (active) and > 30 µM (not active), respectively. Turning to `Cc1cccc(C(=O)NC2CCN(C(=O)N3CCOCC3)CC2)c1`, the concentration at half-maximal activity (AC50) at Cytochrome P450 2C19 (read-out: AC50) was 31.6 µM (inconclusive). As to `CCOc1ccc(CCNC(=O)c2cc(-c3ccccc3)c(N3CCOCC3)s2)cc1`, the EC50 in data set [2] is 1.45 µM (active); in data set [3] it was > 60 µM (not active). Take `COC(=O)[C@H](Cc1ccccc1)NC(=O)[C@@H](C)CO`: on Cytochrome P450 2C9, the concentration at half-maximal activity (AC50) is 3.98 µM (inconclusive). As to `CCOc1ccc(-n2c(SCc3nc(-c4cccs4)no3)nnc2-c2ccncc2)cc1`, the EC50 was 1.25 µM (active) in data set [2] and > 60 µM (not active) in data set [3]. Turning to `COC(=O)c1cc(C(=O)Nc2ccc(S(=O)(=O)NC(C)(C)C)cc2)cc([N+](=O)[O-])c1`, the EC50 in data set [2] was 0.797 µM (active); in data set [3], > 60 µM (inconclusive). With `COc1ccc2nc(/N=C\N(C)C)sc2c1`, the AC50 at Cytochrome P450 2C19 (read-out: AC50) is 22.4 µM (inconclusive); on Cytochrome P450 2C9, 0.00562 µM (inconclusive). For the compound `CCn1cnc2c1c(=O)n(CC(=O)Nc1cc(C)on1)c(=O)n2Cc1ccccc1`, the EC50 (in data set [1]; at Streptokinase A; in the data set with Streptococcus) was > 150 µM (not active) in each case.

`CCCCCC(=O)NNC(=O)c1c(O)c2ccccc2n(CC)c1=O`: the EC50 is 7.72 µM (active) in data set [1], > 50 µM (not active) at Streptokinase A and 19.1 µM (active) with Streptococcus. As to `COc1ccc(O[C@H]2C=C[C@@H](c3ccccc3)O[C@H]2COC(=O)CC/C(C)=N\O[C@@H](C)c2cc(-c3c(C)cc(C)cc3C)no2)cc1`, the AC50 at Cytochrome P450 2C9 was 1.58 µM (inconclusive). For `CCOc1cccc(N(C(=O)c2ccco2)C(C(=O)NC2CCCC2)c2cccnc2)c1` (stereo not given), the EC50 (in data set [1]; at Streptokinase A; with Streptococcus) was > 150 µM (not active) in each case. With `CN1CCN(C(=O)c2ccc3c(=O)n4c(nc3c2)CCCCC4)CC1`, on Cytochrome P450 2C19 (read-out: AC50), the AC50 is 10 µM (inconclusive). For `CC(=O)OCC1=C(C(=O)O)N2C(=O)C(NC(=O)Cn3nc(C(F)F)c(Cl)c3C)C2SC1` (stereo not given), the EC50 in data set [1] is < 0.06 µM (active); with Streptococcus, 0.111 µM (active). Consider `O=C(Nc1cc(Sc2ccccn2)cc([N+](=O)[O-])c1)c1cccc(Cl)c1`, for which the EC50 in data set [2] is 0.625 µM (active); in data set [3], > 60 µM (not active). With `Clc1ccc(COn2c(-c3ccc(Cl)cc3)nc3ccccc32)cc1`, the EC50 was 8.35 µM (active) in data set [1], > 50 µM (not active) on Streptokinase A and 10.8 µM (active) in the data set with Streptococcus. Consider `O=C(O)CSc1ccn(Cc2ccccc2)c1`, for which, at Cytochrome P450 2C19, the AC50 result is reported as “inconclusive”. For `Cc1cc(C)n(-c2cc(N3CCN(S(=O)(=O)c4ccc(C)c(C)c4)CC3)ccc2[N+](=O)[O-])n1`, the concentration at half-maximal activity (AC50) at Cytochrome P450 2C9 is 2.24 µM (inconclusive). With `C=CCO/C(O)=C1\C(C)=NC(SCC)=C(C#N)C1c1ccc(Cl)cc1` (stereo not given), the results for the EC50 (in data set [1]; on Streptokinase A; in the data set with Streptococcus) were 4.9 µM (active), 8.34 µM (active) and 17.6 µM (active), respectively.

For `COCCOC(=O)C1=C(C)N=C(C)/C(=C(/O)OC(C)C)C1c1cccc([N+](=O)[O-])c1` (stereo not given), the EC50 was 1.31 µM (active) in data set [2] and > 60 µM (not active) in data set [3]. As to `CCOc1ccc(-n2c(C)cc(/C=C3/C(=N)N4C(=NC3=O)SN=C4S(C)(=O)=O)c2C)cc1`, the values for the concentration for a half-maximal effect (EC50) (in data set [1]; on Streptokinase A; with Streptococcus) were 0.599 µM (active), > 150 µM (not active) and 17.5 µM (active), respectively.

For `CCS(=O)(=O)c1nc(S(=O)(=O)c2ccc(C)cc2)c(NCCN2CCOCC2)s1`, the 50% effective concentration (EC50) (in data set [1]; at Streptokinase A; in the data set with Streptococcus) was > 150 µM (not active) in each case.

Consider `COc1ccc(OC)c(NC(=O)NCc2cccnc2)c1`, for which the EC50 (in data set [1]; at Streptokinase A; in the data set on Streptococcus) was > 150 µM (not active) each time. As to `Clc1ccc(/C=N/N=C(/Nc2ccccc2)c2ccccn2)c(Cl)c1`, the EC50 is 10.9 µM (active) in data set [1], > 150 µM (not active) at Streptokinase A and 30.2 µM (active) in the data set on Streptococcus.

For the compound `Oc1cc(CN2COc3ccccc32)c(O)cc1CNC1CCCCC1`, the figures for the AC50 at Cytochrome P450 2C19 (read-out: AC50) and at Cytochrome P450 2C9 were 1.26 µM (inconclusive) and 6.31 µM (inconclusive), respectively. In the case of `c1ccc(C(NCCNC(c2ccccc2)c2ccccc2)c2ccccc2)cc1`, the EC50 in data set [1] is 1.51 µM (active); on Streptokinase A, 12 µM (active); in the data set with Streptococcus it was 20.8 µM (active). `CC1=NN(C(N)=S)C(=O)C1N=Nc1c(C)cc(C)cc1C` (stereo not given): the results for the concentration for a half-maximal effect (EC50) (in data set [1]; at Streptokinase A; in the data set on Streptococcus) were 5.14 µM (active), > 150 µM (not active) and > 150 µM (not active), respectively. Regarding `N#Cc1cccc(-c2cc(NCc3cccnc3)ncn2)c1`, the AC50 on Cytochrome P450 2C19 (read-out: AC50) is 15.8 µM (inconclusive). Regarding `COc1ccc(C(=O)N2CCC3(CCN(Cc4ccncc4)CC3)CC2)cc1`, the AC50 on Cytochrome P450 2C9 was 7.94 µM (inconclusive). Turning to `O=C(O)CCC(=O)N1CCc2cc(S(=O)(=O)NCc3cccs3)ccc21`, the AC50 at Cytochrome P450 2C19 (read-out: AC50) is 25.1 µM (inconclusive); at Cytochrome P450 2C9 it was 31.6 µM (inconclusive). Turning to `Cc1ccc(CN2C(=O)CCC2C(=O)NCc2cccnc2)cc1` (stereo not given), at Cytochrome P450 2C9, the concentration at half-maximal activity (AC50) was 28.2 µM (inconclusive).

Consider `CCCCN(C)CC(O)Cn1cc(/C=C/C(=O)c2ccc(OCC)cc2)c2ccccc21` (stereo not given), for which the EC50 is 0.154 µM (active) in data set [2] and 6.17 µM (active) in data set [3].

With `O=C(c1cnccn1)N1CCC2(CC1)CN(Cc1ccncc1)C2`, the AC50 on Cytochrome P450 2C9 was 31.6 µM (inconclusive). Turning to `COc1ccc(C(=O)C2CCCN(Cc3cnc(N4CCOCC4)s3)C2)c(OC)c1` (stereo not given), the 50% effective concentration (EC50) in data set [2] is 0.991 µM (active); in data set [3], > 60 µM (not active).

On to `C[C@@H](CCCCC(=O)Nc1ccc(C(F)(F)F)cc1)NCCc1c[nH]cn1`, for which the half-maximal activity concentration (AC50) on Cytochrome P450 2C19 (read-out: AC50) is 15.8 µM (inconclusive).
